# Data as given in patent publication US12642796B2, “Method and device of treating chronic kidney disease-associated pruritus” (Avior, Inc., priority 2018, dated 2026).
# Where “and” joins values, the source holds several entries; their conditions need not be identical. Equal values may be shown once.
# Assays:
# Assay type in all cases: in vivo, mouse
# C57BL mice [1] = test: Intradermal injection of SP in mice, scratching behavior at the injection site (Example 1)
# Text: The method of treatment of pruritus was established using C57BL mice where substance P (SP) induced pruritus was created to induce the disease state.
# Healthy male C57BL/6 mice ˜6-8 weeks of age and ranging from 21.2 to 26.8 grams in weight at study initiation were used in the Examples. The mice were acclimated for a minimum of 5 days prior to the beginning of the study. The mice were identified by tail mark and cage label. The study was not blinded. Mice were fed species-specific food, and food and water were supplied ad libitum to the animals.
# Male C57BL mice were given an intradermal (ID) injection of 0.0168 μg of SP (N=4, Group 1) or PBS (N=2, Group 2) on either the right side only or on both sides. Scratching behavior at the injection site was monitored for 30 minutes from time of injection by two separate observers.
# The original dose of 0.0168 μg SP (Group 1) was compared to a higher dose of 33.7 μg SP (N=4, Group 3). […] It was therefore concluded that the scratching behavior was a direct response to the presence and amount of SP.
# C57BL mice [2] = test: SP injection, scratches Groups 7-9, 0-30 minutes (Example 3)
# Method: […] […] Group 9 (N=4) received SP in PBS at a dose of 0.5 mM/50 μL. Various scratching behavior was video recorded and assessed.
# Group 7: All mice were placed in a clear cylindrical enclosure 30 minutes prior to testing to acclimate. An ID bolus injection of SP in sodium acetate was administered.
# Groups 8 and 9: All mice were placed in a clear cylindrical enclosure 30 minutes prior to testing to acclimate. An ID bolus injection of SP in PBS was administered. Recording began immediately following injection of SP and recorded for 30 minutes.
# Animals in Groups 7-9 were acclimated for […] prior to recording. Behavioral recording lasted for 30 minutes (T0-T30).
# The number of scratches per 0-30 minutes for Groups 7-9 is given below in Table 2. The numbers for Groups 7 and 8 were averaged together.
# C57BL/6 mice [3] = test: SP and nalmefene injection, scratches Groups 10-12, 0-60 minutes (Example 3)
# Method: Fifteen male C57BL/6 mice received a single intradermal (ID) bolus injection of substance P (SP) or PBS. Group 10 (N=6) received a single 50 μL injection of PBS. Group 11 (N=4) received SP in PBS at a dose of 0.5 mM/50 μl. […] Scratching behavior was video recorded and assessed.
# Groups 10 and 11: All mice were placed in a clear cylindrical enclosure 60 minutes prior to testing to acclimate. An ID bolus injection of SP in PBS was administered. Recording began immediately following injection of SP and recorded for 60 minutes.
# Group 12: All mice were placed in clear cylinder enclosures for 60 minutes prior to testing to acclimate. A SC bolus injection of nalmefene was administered. 30 minutes after the nalmefene injection, an ID bolus injection of SP in PBS was administered. Recording began immediately following injection of SP and recorded for 60 minutes.
# Animals in Groups 10-12 were acclimated for 1 hour prior to recording. Behavioral recording lasted for 60 minutes (T0-T60). 6 animals were dosed for Group 12 but only 5 animals were tested due to one animal being excluded as an outlier due to no response to SP injection.
# The number of scratches per 10-minute time interval for Groups 10-12 is given below in Table 3. The data is also shown graphically in FIG. 4.
# The number of scratches per 0-30 minute and 30-60 minute time intervals is given below in Table 4 for Group 10 (PBS), Group 11 (0.5 mM SP), and Group 12 (0.75 mg nalmefene). The data is also shown graphically in FIG. 5.
# C57BL/6 mice [4] = test: Dose escalation of SP, mean scratch count (Example 4)
# Method: The SP dose administered to male C57BL/6 mice was escalated and itching was recorded for analysis. Group 13 (N=8) received ID injection of 135 μg SP on the right side of the rostral back. Group 14 (N=8) received ID injection of 233 μg SP on the right side of the rostral back. At T0-60, immediately following dose administration, a camera began recording to monitor itching behavior. At T60, the final itching assessment was completed, camera recording ended, and the study was concluded.
# The recordings were reviewed to calculate itching behavior. Two research associates reviewed the recordings and counted the number of scratches for each mouse during the 60-minute collection time. The mean of the two observations were recorded as the number of scratches per 60 minutes.
# The scratching over time was observed per 10 minute time period for each animal tested. The data is set forth below in Table 6 and is shown graphically in FIG. 6.
# [5] = 250 mM SP ID, Groups 7 and 8 averaged together
# [6] = Group 11, SP 0.5 mM/50 μL ID, 0-10 min
# [7] = Group 11, SP 0.5 mM/50 μL ID, 10-20 min
# [8] = Group 11, SP 0.5 mM/50 μL ID, 20-30 min
# [9] = Group 11, SP 0.5 mM/50 μL ID, 30-40 min
# [10] = Group 11, SP 0.5 mM/50 μL ID, 40-50 min
# [11] = Group 11, SP 0.5 mM/50 μL ID, 50-60 min
# [12] = Group 13, 135 μg SP ID, 0-10 min
# [13] = Group 13, 135 μg SP ID, 10-20 min
# [14] = Group 13, 135 μg SP ID, 20-30 min
# [15] = Group 13, 135 μg SP ID, 30-40 min
# [16] = Group 13, 135 μg SP ID, 40-50 min
# [17] = Group 13, 135 μg SP ID, 50-60 min
# [18] = Group 14, 233 μg SP ID, 0-10 min
# [19] = Group 14, 233 μg SP ID, 10-20 min
# [20] = Group 14, 233 μg SP ID, 20-30 min
# [21] = Group 14, 233 μg SP ID, 30-40 min
# [22] = Group 14, 233 μg SP ID, 40-50 min
# [23] = Group 14, 233 μg SP ID, 50-60 min
substance,measurement,setting,value
SP: neuropeptide that plays a role in the induction and maintenance of pruritus; injected intradermally to induce scratching,local site scratching behavior,"C57BL mice [1]; 0.0168 μg SP ID vs PBS-injected mice, 30 minutes from injection, FIG. 2a",more frequent
same,"scratching in mice, higher vs lower SP dose","C57BL mice [1]; 33.7 μg SP vs 0.0168 μg SP, FIG. 2b",increased scratching
same,"Scratches, Facial, Avg.",C57BL mice [2]; [5],110
same,"Scratches, Facial, individual animals",C57BL mice [2]; [5],110 and 139 and 137 and 54
same,"Scratches, Left Side, Avg.",C57BL mice [2]; [5],39
same,"Scratches, Left Side, individual animals",C57BL mice [2]; [5],1 and 69 and 4 and 82
same,"Scratches, Other, Avg.",C57BL mice [2]; [5],38
same,"Scratches, Other, individual animals",C57BL mice [2]; [5],38 and 45 and 43 and 26
same,"Scratches, Rt. Side, Avg.",C57BL mice [2]; [5],12.5
same,"Scratches, Rt. Side, individual animals",C57BL mice [2]; [5],0 and 36 and 4 and 10
same,"Scratches, Facial, Avg.",C57BL mice [2]; SP 0.5 mM ID (Group 9),29.75
same,"Scratches, Facial, individual animals",C57BL mice [2]; SP 0.5 mM ID (Group 9),5 and 20 and 48 and 46
same,"Scratches, Left Side, Avg.",C57BL mice [2]; SP 0.5 mM ID (Group 9),12
same,"Scratches, Left Side, individual animals",C57BL mice [2]; SP 0.5 mM ID (Group 9),15 and 22 and 11 and 0
same,"Scratches, Other, Avg.",C57BL mice [2]; SP 0.5 mM ID (Group 9),21
same,"Scratches, Other, individual animals",C57BL mice [2]; SP 0.5 mM ID (Group 9),7 and 27 and 35 and 15
same,"Scratches, Rt. Side, Avg.",C57BL mice [2]; SP 0.5 mM ID (Group 9),16.75
same,"Scratches, Rt. Side, individual animals",C57BL mice [2]; SP 0.5 mM ID (Group 9),28 and 7 and 13 and 19
same,"Scratches, Avg.","C57BL/6 mice [3]; Group 11, SP 0.5 mM, 0-30 min",87.5
same,"Scratches, individual animals","C57BL/6 mice [3]; Group 11, SP 0.5 mM, 0-30 min",119 and 67 and 94.5 and 69.5
same,"Scratches, Avg.","C57BL/6 mice [3]; Group 11, SP 0.5 mM, 30-60 min",8.38
same,"Scratches, individual animals","C57BL/6 mice [3]; Group 11, SP 0.5 mM, 30-60 min",19.5 and 5.5 and 2.5 and 6
same,"Scratches, Avg.",C57BL/6 mice [3]; [6],53.75
same,"Scratches, individual animals",C57BL/6 mice [3]; [6],57.5 and 66 and 49 and 42.5
same,"Scratches, Avg.",C57BL/6 mice [3]; [7],28
same,"Scratches, individual animals",C57BL/6 mice [3]; [7],41.5 and 1 and 45 and 24.5
same,"Scratches, Avg.",C57BL/6 mice [3]; [8],5.75
same,"Scratches, individual animals",C57BL/6 mice [3]; [8],20 and 0 and 0.5 and 2.5
same,"Scratches, Avg.",C57BL/6 mice [3]; [9],6
same,"Scratches, individual animals",C57BL/6 mice [3]; [9],15.5 and 0 and 2.5 and 6
same,"Scratches, Avg.",C57BL/6 mice [3]; [10],0
same,"Scratches, individual animals",C57BL/6 mice [3]; [10],0
same,"Scratches, Avg.",C57BL/6 mice [3]; [11],2.38
same,"Scratches, individual animals",C57BL/6 mice [3]; [11],4 and 5.5 and 0 (2×)
same,"Mean Scratch Count, Avg.",C57BL/6 mice [4]; [12],56.75
same,"Mean Scratch Count, individual animals",C57BL/6 mice [4]; [12],127 and 58 and 5.5 and 22 and 57 and 21.5 and 91 and 72
same,"Mean Scratch Count, Avg.",C57BL/6 mice [4]; [13],26.44
same,"Mean Scratch Count, individual animals",C57BL/6 mice [4]; [13],53.5 and 41.5 and 0 and 7 and 36 and 23 and 41 and 9.5
same,"Mean Scratch Count, Avg.",C57BL/6 mice [4]; [14],8.88
same,"Mean Scratch Count, individual animals",C57BL/6 mice [4]; [14],0 (2×) and 4 and 7 and 2 and 12.5 and 22.5 and 23
same,"Mean Scratch Count, Avg.",C57BL/6 mice [4]; [15],3.69
same,"Mean Scratch Count, individual animals",C57BL/6 mice [4]; [15],0 (4×) and 15 and 0.5 and 12 and 2
same,"Mean Scratch Count, Avg.",C57BL/6 mice [4]; [16],1.06
same,"Mean Scratch Count, individual animals",C57BL/6 mice [4]; [16],0 (6×) and 5 and 3.5
same,"Mean Scratch Count, Avg.",C57BL/6 mice [4]; [17],0.31
same,"Mean Scratch Count, individual animals",C57BL/6 mice [4]; [17],0 (6×) and 2 and 0.5
same,"Mean Scratch Count, Avg.",C57BL/6 mice [4]; [18],89.88
same,"Mean Scratch Count, individual animals",C57BL/6 mice [4]; [18],123 and 131.5 and 108 and 85.5 and 8 and 33 and 145 and 85
same,"Mean Scratch Count, Avg.",C57BL/6 mice [4]; [19],30.06
same,"Mean Scratch Count, individual animals",C57BL/6 mice [4]; [19],56.5 and 32 and 42 and 33 and 6 and 9 and 35 and 27
same,"Mean Scratch Count, Avg.",C57BL/6 mice [4]; [20],13.94
same,"Mean Scratch Count, individual animals",C57BL/6 mice [4]; [20],7 and 6 and 27 and 21.5 and 5 and 10.5 and 16 and 18.5
same,"Mean Scratch Count, Avg.",C57BL/6 mice [4]; [21],5.19
same,"Mean Scratch Count, individual animals",C57BL/6 mice [4]; [21],0 (2×) and 3 and 5 (2×) and 16.5 and 8 and 4
same,"Mean Scratch Count, Avg.",C57BL/6 mice [4]; [22],3.56
same,"Mean Scratch Count, individual animals",C57BL/6 mice [4]; [22],3 and 0 (3×) and 4 and 7.5 and 1 and 13
same,"Mean Scratch Count, Avg.",C57BL/6 mice [4]; [23],6.31
same,"Mean Scratch Count, individual animals",C57BL/6 mice [4]; [23],8 and 0 (2×) and 2 and 33 and 1 (2×) and 5.5
